# Measurements as given in patent publication US7923025B2, “Pharmaceutical composition for oral use with improved absorption” (Astellas Pharma Inc., priority 2003, dated 2011).
# Experiment: Gastrointestinal absorption of insulin, rat intestinal loop, plasma glucose (Experiment 1)
# Type: in vivo, Wistar male rats
# Protocol: Then 0.25 ml blood was collected from the jugular vein 0, 0.5, 1, 1.5, 2 and 3 hours after administration and the plasma glucose concentration was determined. The reduction in the plasma glucose concentration (D, % of initial*h) up to three hours after administration was calculated with the plasma glucose concentration before administration being 100. D was calculated by subtracting the plasma glucose area under concentration (% of initial*h) up to 3 hours after administration from the AUC with administration of normal saline only.
# On the other hand, by way of comparison, a liquid of 6 mg bovine insulin dissolved in 20 ml normal saline liquid was administered to a large intestine loop in an amount corresponding to 600 μg/kg insulin, or as the control, 2 ml normal saline were administered to a large intestine loop and the plasma glucose concentration was determined as described above (Glucose CII Test Wako, Wako Pure Chemical Industries, Ltd.).
substance,measurement,setting,value
"Comparison (E-SD not administered): 6 mg bovine insulin dissolved in 20 ml normal saline, without E-SD",AUC (plasma glucose),"rat intestinal loop, up to 3 hours after administration",368.84 ± 63.19 % of initial*h
same,D (reduction in the plasma glucose concentration),"up to 3 hours, AUC with normal saline only minus AUC",13.00 % of initial*h
